# Marks after values point to notes of the source that are not given here.
# How the values were obtained:
# [1] = Kinetic solubility assay (Example 11)
# Experimental: Test and control compounds were diluted to 10 mM in DMSO and then further diluted 1 in 50 in 50 mM PB (pH 7.4) to a target concentration of 200 μM. Samples were vortexed for at least 2 minutes and then left to shake (800 rpm) at room temperature for 24 hours. Visual appearance was assessed before centrifugation and injection into a UPLC system to measure concentration. […] Each compound was tested in duplicate.
# [2] = Shake flask Log D assay (Example 11); assay type: physicochemical; settings: 1-Octanol / 100 mM PB pH 7.4, shake flask, LC-MS/MS; test compound as hydrochloride
# Experimental: Test and control compounds were diluted to 10 mM in DMSO. 2 μl of each stock solution was aliquoted into tubes in duplicate. 1-Octanol saturated phosphate buffer (PB) (pH 7.4) was prepared by adding 1-Octanol into 100 ml of 100 mM PB (7.4). PB saturated 1-Octanol was prepared by adding 10 ml of 100 mM PB (7.4) into 100 ml of 1-Octanol. 149 μl of each solution was aliquoted into the corresponding tubes. These were then mixed vigorously for 2 minutes and shaken (800 rpm) at room temperature for one hour. The appropriate volume of buffer and 1-Octanol layer samples was aliquoted and diluted, before detection using LC-MS/MS.
# Log D was calculated according to the following equation: […]
# [3] = Kinetic turbidimetric solubility assay; settings: 0.01 M PBS pH 7.4, 2% DMSO, room temperature, novel compounds as hemifumarate, psilocybin and psilocin free base; for solubility at 5 min: pH 7.4, aqueous buffer, kinetic from dmso stock
# Experimental: Each test compound was diluted to 10 mM in DMSO. From this solution, six further dilutions of each test compound were prepared in DMSO (0.02, 0.1, 0.2, 1, 2, and 5 mM). […] Three replicate wells were designated per concentration. Following the dilutions in buffer, plates were incubated at room temperature shaking for 5 minutes before the absorbance was measured at 620 nm using a Molecular Devices SpectraMax384 UV detector. Nicardipine was tested as a control compound.
# Solubility was estimated from the concentration of test compound that produced an increase in absorbance above a threshold of 0.005 absorbance units and was normalized to the DMSO blank.
# Micro shake flask Log D = settings: for Mean LogD: Octanol:PBS 1:9, pH 7.4, 10 μM, six replicates, novel compounds as hemifumarate; for logD at 2 h: pH 7.4
# Experimental: 6 replicates of each test compound were incubated at 10 μM in a 1:9 ratio of Octanol: PBS at pH 7.4. Following a two hour incubation at room temperature shaking at 600 rpm, the incubation plate was centrifuged for 15 minutes to separate the layers and then two aliquots were removed from the PBS layer. The first was left neat and the second was diluted 10-fold to give dilute samples. Internal standards were added to both the calibration curve and the PBS incubation samples for analysis on LC MS/MS.
# All 6 replicates of the neat samples were averaged to give one value for each, with the same calculation performed for the dilute sample values.
# [4] = target: T1, serotonin 2A (5-HT2A) receptor (Mus musculus, UniProt P35363); test: Head twitch response (HTR) in mice; assay type: in vivo, male C57BL/6J mice; settings: oral gavage 0.3 mg/kg
# T1 construct: tissue Charles River UK; host or cells: whole living male C57BL/6J mice (in vivo, oral gavage)
# [5] = Intake study: serum concentrations after oral ingestion by two volunteers; settings: for c(Psilocin): study 1
# Experimental: Two volunteers (1 M, 1 F) ingested about 1 mg of each one of P1 and M1 (Study 1) and P2 and M2 (Study 2) in gelatin capsules (exact amounts in Tables 3 and 4). One blood sample was collected prior to ingestion of the substances and served as a zero control. After ingestion samples were collected for about 8 h with increasing time intervals between sample taking (exact protocol in Tables 4 and 5). […] The obtained sera were transferred in plastic tubes and NaF (ca. 30 mg) and ascorbic acid (ca. 5 mg) were added to increase analytes stability.
# 200 μL serum were spiked with an internal standard solution (10 μL) and ACN (600 μL) was added to precipitate soluble proteins. Before mixing thoroughly ammonium formate (10 M, 200 μL) was added separate the aqueous from the organic phase. After centrifugation (6 min, 4,000×g), 500 μL of the organic phase were transferred into another vial and evaporated to dryness at 40° C. under a gentle stream of nitrogen. Samples were reconstituted in 100 μL mobile phase (A/B, 90/10, v/v) and used for analysis. For quantification a blank sample and a six point calibration (0.5, 1.0, 2.0, 5.0, 10, 20 ng/mL) in calf serum were prepared as described above.
# The HPLC-MS system consisted of a Nexera X2 UHPLC system composed of three LC-30AD pumps, a DGU-30A3 degasser, a SIL-30AC autosampler, a CTO-10AS column oven and a CBM-20A controller (Shimadzu, Duisburg, Germany) coupled to a QTRAP 6500plus triple quadrupole linear ion trap mass spectrometer equipped with a TurbolonSpray Interface (Sciex, Darmstadt, Germany). The MS was operated in positive electrospray ionization mode. Data acquisition was performed in scheduled multiple reaction monitoring mode (detection window: 60 s) using Analyst software (version 1.7). MS parameters (declustering potential, entrance potential, collision energy, and collision cell exit potential) were optimized for all substances to obtain the best possible signal intensities (summary of the MRM parameters are given in Table 5). Ion source temperature and ion source voltage were set to 550° C. and +5500 V, respectively. Dwell time was 20 ms for every MRM transition. Curtain gas (N2) pressure was 35 psi, ion source gas 1 and 2 (compressed air) pressure were 50 and 60 psi, respectively, and collision gas (N2) pressure was set to “high.” Chromatographic separation was performed on a Kinetex® biphenyl column (100×2.1 mm, 2.6 μm particle size, Phenomenex, Aschaffenburg, Germany) with a corresponding guard column (SecurityGuard™ ULTRA Cartridges UHPLC Biphenyl for 2.1 mm ID columns, Phenomenex, Aschaffenburg, Germany). The autosampler and the column oven temperature were set to 10° C. and 40° C., respectively. The injection volume was 10 μL.
# [6] = serum, oral intake of about 1 mg prodrug, mean of 2 volunteers
# T1 sequence (P35363 whole entry): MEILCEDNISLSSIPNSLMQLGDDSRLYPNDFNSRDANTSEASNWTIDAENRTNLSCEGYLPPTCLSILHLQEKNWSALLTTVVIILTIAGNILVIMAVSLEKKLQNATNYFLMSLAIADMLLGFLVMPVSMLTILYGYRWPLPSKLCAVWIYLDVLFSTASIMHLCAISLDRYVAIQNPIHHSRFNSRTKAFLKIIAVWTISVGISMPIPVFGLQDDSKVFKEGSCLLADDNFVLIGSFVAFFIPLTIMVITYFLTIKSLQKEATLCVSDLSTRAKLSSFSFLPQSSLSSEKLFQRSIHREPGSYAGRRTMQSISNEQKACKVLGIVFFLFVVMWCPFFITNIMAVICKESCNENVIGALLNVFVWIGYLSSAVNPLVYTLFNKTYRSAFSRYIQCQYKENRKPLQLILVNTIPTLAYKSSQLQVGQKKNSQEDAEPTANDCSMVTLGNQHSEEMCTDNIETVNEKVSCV
smiles,measurement,setting,value
NC(=O)N1c2ccccc2C=Cc2ccccc21 [Carbamazepine],Detected concentration,"[1]; 50 mM PB pH 7.4, target 200 μM, 24 hours shaking at room temperature, UPLC, test compound as hydrochloride",180 µM
same,solubility at 24 h,"[1]; pH 7.4, aqueous buffer, kinetic from dmso stock",> 180 µM
CN(C)CCCN1c2ccccc2Sc2ccc(Cl)cc21 [Chlorpromazine],logD at 1 h,[2],3.28
CCOC(=O)Oc1cccc2[nH]cc(CCN(C)CC)c12 [N-methyl-N-ethyltryptamine-4-yl ethylcarbonate],Solubility,[3],>200 µM
same,Mean LogD,Micro shake flask Log D,1.01
same,Mean number of head twitches 15-30 mins,[4]; N = 8,3.5
same,Mean number of head twitches 30-45 mins,[4]; N = 8,2.38
same,Mean number of head twitches 45-60 mins,[4]; N = 8,0.38
CC(C)(C)NCC(O)COc1cccc2c1CC(O)C(O)C2 (stereo not shown) [Nadolol],logD at 1 h,[2],-1.33
COC(=O)C1=C(C)NC(C)=C(C(=O)OCCN(C)Cc2ccccc2)C1c1cccc([N+](=O)[O-])c1 (stereo not shown) [Nicardipine],solubility at 5 min,[3],24.4 µM
"CN(C)CCc1c[nH]c2cccc(O)c12 [Psilocin, psilocin]",solubility at 5 min,[3],> 200 µM
same,logD at 2 h,Micro shake flask Log D,1.01
"CCOC(=O)Oc1cccc2[nH]cc(CCN(C)C)c12 [Psilocin-4-yl-ethylcarbonate, psilocin-4-yl ethyl carbonate]",Mean LogD,Micro shake flask Log D,1.22
same,"Parent prodrug itself in serum (not detected, LOD)",[5]; serum after oral ingestion of about 1 mg,< 0.05 ng/mL
same,Cmax of psilocin,[5]; [6],1.1 ± 0.5 ng/mL
same,Tmax of psilocin,[5]; [6],0.933 ± 0.217 h
same,elimination constant kel of psilocin,[5]; [6],0.0039 min⁻¹
same,elimination half life t1/2 of psilocin,[5]; [6],3.18 h
same,c(Psilocin),"[5]; serum, test person A, oral P1 1.03 mg salt, 15 min, below LOQ, extrapolated",0.15* ng/mL
same,c(Psilocin),"[5]; serum, test person A, oral P1 1.03 mg salt, 21 min",0.34 ng/mL
same,c(Psilocin),"[5]; serum, test person A, oral P1 1.03 mg salt, 31 min",0.51 ng/mL
same,c(Psilocin),"[5]; serum, test person A, oral P1 1.03 mg salt, 49 min",0.82 ng/mL
same,c(Psilocin),"[5]; serum, test person A, oral P1 1.03 mg salt, 65 min",1.45 ng/mL
same,c(Psilocin),"[5]; serum, test person A, oral P1 1.03 mg salt, 87 min",1.02 ng/mL
same,c(Psilocin),"[5]; serum, test person A, oral P1 1.03 mg salt, 120 min",1.02 ng/mL
same,c(Psilocin),"[5]; serum, test person A, oral P1 1.03 mg salt, 155 min",0.59 ng/mL
same,c(Psilocin),"[5]; serum, test person A, oral P1 1.03 mg salt, 165 min",0.98 ng/mL
same,c(Psilocin),"[5]; serum, test person A, oral P1 1.03 mg salt, 240 min",0.58 ng/mL
same,c(Psilocin),"[5]; serum, test person A, oral P1 1.03 mg salt, 338 min",0.34 ng/mL
same,c(Psilocin),"[5]; serum, test person A, oral P1 1.03 mg salt, 371 min",0.33 ng/mL
same,c(Psilocin),"[5]; serum, test person A, oral P1 1.03 mg salt, 424 min, below LOQ, extrapolated",0.29* ng/mL
same,c(Psilocin),"[5]; serum, test person A, oral P1 1.03 mg salt, 486 min, below LOQ, extrapolated",0.26* ng/mL
same,c(Psilocin),"[5]; serum, test person B, oral P1 0.99 mg salt, 6 min, below LOQ, extrapolated",0.22* ng/mL
same,c(Psilocin),"[5]; serum, test person B, oral P1 0.99 mg salt, 13 min, below LOQ, extrapolated",0.25* ng/mL
same,c(Psilocin),"[5]; serum, test person B, oral P1 0.99 mg salt, 20 min",0.38 ng/mL
same,c(Psilocin),"[5]; serum, test person B, oral P1 0.99 mg salt, 30 min",0.60 ng/mL
same,c(Psilocin),"[5]; serum, test person B, oral P1 0.99 mg salt, 47 min",0.76 ng/mL
same,c(Psilocin),"[5]; serum, test person B, oral P1 0.99 mg salt, 64 min",0.54 ng/mL
same,c(Psilocin),"[5]; serum, test person B, oral P1 0.99 mg salt, 83 min",0.60 ng/mL
same,c(Psilocin),"[5]; serum, test person B, oral P1 0.99 mg salt, 114 min",0.43 ng/mL
same,c(Psilocin),"[5]; serum, test person B, oral P1 0.99 mg salt, 165 min",0.37 ng/mL
same,c(Psilocin),"[5]; serum, test person B, oral P1 0.99 mg salt, 232 min",0.32 ng/mL
same,c(Psilocin),"[5]; serum, test person B, oral P1 0.99 mg salt, 322 min, below LOQ, extrapolated",0.25* ng/mL
same,c(Psilocin),"[5]; serum, test person B, oral P1 0.99 mg salt, 369 min, below LOQ, extrapolated",0.24* ng/mL
same,c(Psilocin),"[5]; serum, test person B, oral P1 0.99 mg salt, 432 min, below LOQ, extrapolated",0.22* ng/mL
same,Mean number of head twitches 0-15 mins,[4]; N = 8,3.5
same,Mean number of head twitches 15-30 mins,[4]; N = 8,3.13
same,Mean number of head twitches 30-45 mins,[4]; N = 8,3.38
same,Mean number of head twitches 45-60 mins,[4]; N = 8,1.13
same,Mean number of head twitches Total 0-60 mins,"[4]; N = 8, 0.3 mg/kg",10.84
"CN(C)CCc1c[nH]c2cccc(OP(=O)(O)O)c12 [Psilocybin, psilocybin, reference compound]",solubility at 5 min,[3],≥ 100 µM
same,logD at 2 h,Micro shake flask Log D,0.57

# Reference: US20230295086A1, “NOVEL PSILOCIN DERIVATIVES HAVING PRODRUG PROPERTIES” (COMPASS […], priority 2020, published 2023)
